Patent publication USRE37410E, “Controlled local delivery of chemotherapeutic agents for treating solid tumors” (priority 1999, dated 2001)

Legend:
9L = experiment: Intracranial local drug delivery by polymer implant in rat glioma model, median survival (Table 1 summary); conditions: in vivo
F98 = type: cell-based; conditions: Rattus norvegicus, continuous 6-8 days exposure, read-out: LD90 (the source's name)
[1] = Intracerebral distribution of paclitaxel from polymer implant; type: in vivo, rat; conditions: for time course of paclitaxel brain concentration: 30 days after implant
Method: Animals. Male Fischer 344 rats weighing 200-225 g were obtained from Harlan Sprague-Dawley, Inc. (Indianapolis, Ind.), kept in standard animal facilities with 4 rats/cage, and given free access to Certified Rodent Chow No. 5002 (Ralston Purina Co., St. Louis, Mo.) and to Baltimore city water.
Preparation of the paclitaxel loaded polymer. Polymer discs containing labeled paclitaxel were prepared as above, except that a small amount of ^3 H-labeled paclitaxel (specific activity, 19.3 Ci/mmol; National Cancer Institute) in toluene was added to the initial solution of polymer and paclitaxel in methylene chloride. The polymer-paclitaxel mixture was then dried in a vacuum desiccator and pressed into discs using a table vise calibrated to form a pellet.
Paclitaxel-polymer implantation. The procedure for polymer implantation in the rat has been described by Tamargo, R. J., et al. (Cancer Res. 53:329-333 (1993)), the teachings of which are incorporated herein by reference. Briefly, the heads of anesthetized rats were shaved and prepared aseptically. The skull was exposed with a midline incision, and a 3-mm burr hole was drilled through the skull 5 mm posterior and 3 mm lateral to the bregma. The dura was incised with a microsurgical knife (Edward Weck and Co., Inc., Research Triangle Park, N.C.), and the polymer disc was inserted into the brain parenchyma. The wound was irrigated and closed with surgical clips (Clay Adams, Parsippany, N.J.).
Protocol for intracerebral drug distribution. Twelve rats were given implants of 10-mg discs containing 40% paclitaxel by weight and 0.60 μCi/mg disc weight. At 3, 9, 17, and 30 days postimplantation, groups of 3 rats each were euthanized. The skull was opened and the brain exposed. The polymer disc was removed from the brain in situ. The brain was then removed from the skull and snap frozen in heptane over dry ice. The brain was sectioned in the midline into implant and contralateral hemispheres. Each hemisphere was sectioned coronally at 2-mm intervals by using a tissue blade grid consisting of individual tissue blades arranged in parallel separated by 2-mm metal spacers. Each section was weighed, dissolved in 15 ml Solvable homogenizing solution (New England Nuclear Dupont, Boston, Mass.), and combined with 15 ml Atomlight™ scintillation mixture (New England Nuclear Dupont). The brain samples were counted on a Beckman liquid scintillation counter. Raw counts were corrected for quenching and converted to dpm using a linear regression based on a series of quenched standards.
To convert dpm/mg tissue to paclitaxel concentration, a second experiment was performed. Four rats were given implants of 40% loaded polymer discs with 0.39 μCi/mg. One rat each was sacrificed at 3, 9, 17, and 30 days. The brain was removed and frozen as above. A 2-mm coronal section was taken through the site of the polymer implant. The section was minced and extracted with ethanol. The ethanol fraction was divided in two. […] The Rf value for the paclitaxel was determined and each lane cut into 4 sections: A. origin; B, origin to paclitaxel spot; C. paclitaxel spot; and D. paclitaxel spot to solvent front. The chromatography strips were combined with Atomlight™ mixture and counted in a liquid scintillation counter. […] To determine the efficiency of extraction, the remaining half of the original extract was combined with mixture and counted, and the residual brain tissue was homogenized and counted as above. […]

[2] = cell-culture medium; cited from earlier work
[3] = human, in vivo; cited from earlier work
[4] = in vivo; cited from earlier work
intracranial gliomas = conditions: i.p.; cited from earlier work
[5] = test system: ovarian, breast, lung, and prostatic cancer and melanoma; conditions: cited from earlier work

SMILES: CC(=O)O[C@H]1C(=O)[C@@]2(C)[C@H]([C@H](OC(=O)c3ccccc3)[C@]3(O)C[C@H](OC(=O)[C@H](O)[C@@H](NC(=O)c4ccccc4)c4ccccc4)C(C)=C1C3(C)C)[C@]1(OC(C)=O)CO[C@@H]1C[C@@H]2O [paclitaxel]
- % increase survival (9L): 215%
- Median survival in days, Rx group (9L): 61.5
- IC90 (F98): 25 nM
- time course of paclitaxel brain concentration [1]: still constant or rising throughout the rat brain 30 days after implant
- time course of paclitaxel brain concentration ([1]; listed as Paclitaxel): increased slightly during the 30 days
- duration of elevated paclitaxel concentration in brain ([1]; after implantation in the rat brain): at least one month
- raw counts tissue bound ([1]; brain, each time point): 31±3%
- raw counts representing parent drug ([1]; brain, each time point, ± standard error of the mean): approximately 56±3%
- hydrolysis to inactive compounds [2]: less than 10%
- clearance [3]: extensive non-renal clearance
- penetration of intact blood-brain barrier [4]: penetrates the intact blood-brain barrier poorly, if at all
- increased survival from systemic intraperitoneal injections (intracranial gliomas): no increased survival
- concentrations cytotoxic in vitro [5]: nanomolecular concentrations
